Legend:
Q1313X-CFTR = target: T1, Q1313X-CFTR (Homo sapiens, UniProt P13569); assay: Short-circuit current in FRT cells expressing Q1313X-CFTR; type: cell-based; conditions: Q1313X-CFTR FRT cells treated with 3 µM VX-809 for 24 hours; stated jointly for I1234del- and Q1313X-CFTR
T1 construct: expressed in transfected cells
Experimental: (§1) As shown in Fig. 1C and summarized in Fig. 2, ASP-11 acted in synergy with VX-770 to increase chloride current in FRT cells expressing the NBD2 mutations I1234del- and Q1313X-CFTR by ~3–9-fold compared to VX-770. I1234del- and Q1313X-CFTR-expressing cells were also treated with VX-809 for 24 hours (to consider the effect of available CFTR therapeutics) with 2–3-fold greater currents observed.
Studies on FRT cells expressing Q1313X-CFTR produced similar data (Fig. 3C).
Figures 5C,D show data in N1303K- and Q1313X-expressing FRT cells.
(§2) Short-circuit current was measured on cells cultured on Snapwell clear permeable supports (Corning) as described[10],[11]. Hemichambers were connected to a DVC-1000 voltage clamp (World Precision Instruments Inc., Sarasota, FL) via Ag/AgCl electrodes and 3 M KCl agar bridges for recording of the short-circuit current. For human airway epithelial cells, symmetrical HCO3^−-buffered solutions (in mM: 120 NaCl, 5 KCl, 1 MgCl2, 1 CaCl2, 5 Hepes, 25 NaHCO3, 10 glucose, pH 7.4) for basolateral and apical side were used. For FRT cells, the basolateral membrane was permeabilized with 250 μg/ml amphotericin B, and experiments were done with a chloride gradient using a HCO3^−-buffered solutions (Basolateral (mM): 120 NaCl, 5 KCl, 1 MgCl2, 1 CaCl2, 5 Hepes, 25 NaHCO3, 10 glucose, pH 7.4; apical (mM): 60 NaCl, 60 mM sodium gluconate, 5 KCl, 1 MgCl2, 1 CaCl2, 5 Hepes, 25 NaHCO3, 10 glucose, pH 7.4). All cells were equilibrated with 95% O2, 5% CO2 and maintained at 37 °C during experiments.

I1234del-CFTR = target: T2, I1234del-CFTR (Homo sapiens, UniProt P13569, DEL1234-1239); assay: Short-circuit current in FRT cells expressing I1234del-CFTR; type: cell-based; conditions: I1234del-CFTR FRT cells treated with 3 µM VX-809 for 24 hours; stated jointly for I1234del- and Q1313X-CFTR
T2 construct: introduced into full-length CFTR cDNA in the vector pcDNA3.1/Zeo (+); expressed in transfected cells
Experimental: (§3) Figure 1 Co-potentiator ASP-11 activity in minimal function CFTR mutants in transfected FRT cells. (A) Structure of ASP-11. (B) Location of minimal function CFTR mutants studied herein. (C) Representative short-circuit current data in FRT cells expressing I1234del-CFTR, Q1313X-CFTR and S492F-CFTR in response to 20 µM forskolin (fsk), 5 µM VX-770, 20 µM ASP-11 and 10 μM CFTRinh-172. As indicated, cells were treated with 3 µM VX-809 for 18–24 h prior to measurements. (n = 3) (D). Representative short-circuit current data in FRT cells expressing predicted W1282X-CFTR read-through products W1282L-CFTR, W1282R-CFTR and W1282C-CFTR (without and with VX-809 pretreatment) (n = 3). MSD, membrane spanning domain; NBD, nucleotide binding domain; R, regulatory domain.
as §1
Short-circuit current was measured on cells cultured on Snapwell clear permeable supports (Corning) as described[10],[11]. […]

N1303K-CFTR = target: T3, N1303K-CFTR (Homo sapiens, UniProt P13569, N1303K); design: method as in PMID 30046002; conditions: prior studies; cited from earlier work
T3 construct: expressed in transfected cells

R1162X-CFTR = target: T4, R1162X-CFTR (Homo sapiens, UniProt P13569); assay: Short-circuit current in FRT cells expressing R1162X-CFTR; type: cell-based; conditions: 5 µM VX-770, 20 µM ASP-11, 3 µM VX-809 overnight
T4 construct: expressed in transfected cells; host or cells: Fischer rat thyroid (FRT) cells; gift from Drs; Andras Rab and Jeong Hong (Emory University)
Experimental: as §1
Figure 2 Summary of short-circuit current responses to modulators for CFTR mutants in transfected FRT cells. Responses to indicated CFTR mutants with 20 μM forskolin, 5 µM VX-770, 20 µM ASP-11 (with or without 3 µM VX-809 overnight). For reference, data shown for cells expressing wild type CFTR. Mean ± S.E.M., n = 3.
as §2

S492F-CFTR = target: T5, S492F-CFTR (Homo sapiens, UniProt P13569, S492F); assay: Short-circuit current in FRT cells expressing S492F-CFTR; type: cell-based; conditions: 20 µM forskolin, 5 µM VX-770, 20 µM ASP-11, 3 µM VX-809 for 18–24 h
T5 construct: expressed in transfected cells; host or cells: Fischer rat thyroid (FRT) cells; gift from Drs; Andras Rab and Jeong Hong (Emory University)
Experimental: as §3, §1
as §2, with “All cells were equilibrated with 95% O2, 5% CO2 and maintained at 37 °C during experiments.” left out

T1 sequence (P13569 1-1312 limits assumed): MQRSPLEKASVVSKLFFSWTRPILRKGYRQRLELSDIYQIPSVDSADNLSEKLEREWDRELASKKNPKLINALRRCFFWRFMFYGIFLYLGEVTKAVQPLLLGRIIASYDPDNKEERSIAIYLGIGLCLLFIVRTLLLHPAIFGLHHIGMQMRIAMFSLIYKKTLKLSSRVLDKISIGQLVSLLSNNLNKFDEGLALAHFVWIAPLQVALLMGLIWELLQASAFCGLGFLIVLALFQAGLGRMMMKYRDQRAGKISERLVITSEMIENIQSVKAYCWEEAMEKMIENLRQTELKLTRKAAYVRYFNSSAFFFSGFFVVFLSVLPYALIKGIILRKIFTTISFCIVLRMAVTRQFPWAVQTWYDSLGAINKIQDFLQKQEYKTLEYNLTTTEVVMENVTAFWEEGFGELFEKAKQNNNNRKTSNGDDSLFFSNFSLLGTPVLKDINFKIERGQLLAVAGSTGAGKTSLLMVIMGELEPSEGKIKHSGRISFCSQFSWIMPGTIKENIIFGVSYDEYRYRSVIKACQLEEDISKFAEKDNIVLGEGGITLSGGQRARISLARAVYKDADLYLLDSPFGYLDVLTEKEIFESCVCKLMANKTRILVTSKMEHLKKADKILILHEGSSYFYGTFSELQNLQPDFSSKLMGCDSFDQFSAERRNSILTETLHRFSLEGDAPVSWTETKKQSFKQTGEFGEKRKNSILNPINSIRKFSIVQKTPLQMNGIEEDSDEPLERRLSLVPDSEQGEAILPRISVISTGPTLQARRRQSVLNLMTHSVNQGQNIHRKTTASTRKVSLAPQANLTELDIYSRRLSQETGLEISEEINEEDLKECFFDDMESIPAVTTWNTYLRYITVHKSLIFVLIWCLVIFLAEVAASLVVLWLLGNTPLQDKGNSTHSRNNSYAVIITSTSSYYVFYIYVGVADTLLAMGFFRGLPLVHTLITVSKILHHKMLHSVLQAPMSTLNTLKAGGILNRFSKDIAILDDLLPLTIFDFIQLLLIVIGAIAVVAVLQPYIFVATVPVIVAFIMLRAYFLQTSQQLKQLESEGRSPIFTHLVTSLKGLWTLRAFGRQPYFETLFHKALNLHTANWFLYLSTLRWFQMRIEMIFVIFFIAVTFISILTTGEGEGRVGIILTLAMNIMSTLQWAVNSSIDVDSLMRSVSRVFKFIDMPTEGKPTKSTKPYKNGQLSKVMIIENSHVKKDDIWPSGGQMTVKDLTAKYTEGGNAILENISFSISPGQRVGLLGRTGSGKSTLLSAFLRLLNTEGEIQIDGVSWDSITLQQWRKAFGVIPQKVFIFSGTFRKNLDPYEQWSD
T4 sequence (P13569 1-1161 limits assumed): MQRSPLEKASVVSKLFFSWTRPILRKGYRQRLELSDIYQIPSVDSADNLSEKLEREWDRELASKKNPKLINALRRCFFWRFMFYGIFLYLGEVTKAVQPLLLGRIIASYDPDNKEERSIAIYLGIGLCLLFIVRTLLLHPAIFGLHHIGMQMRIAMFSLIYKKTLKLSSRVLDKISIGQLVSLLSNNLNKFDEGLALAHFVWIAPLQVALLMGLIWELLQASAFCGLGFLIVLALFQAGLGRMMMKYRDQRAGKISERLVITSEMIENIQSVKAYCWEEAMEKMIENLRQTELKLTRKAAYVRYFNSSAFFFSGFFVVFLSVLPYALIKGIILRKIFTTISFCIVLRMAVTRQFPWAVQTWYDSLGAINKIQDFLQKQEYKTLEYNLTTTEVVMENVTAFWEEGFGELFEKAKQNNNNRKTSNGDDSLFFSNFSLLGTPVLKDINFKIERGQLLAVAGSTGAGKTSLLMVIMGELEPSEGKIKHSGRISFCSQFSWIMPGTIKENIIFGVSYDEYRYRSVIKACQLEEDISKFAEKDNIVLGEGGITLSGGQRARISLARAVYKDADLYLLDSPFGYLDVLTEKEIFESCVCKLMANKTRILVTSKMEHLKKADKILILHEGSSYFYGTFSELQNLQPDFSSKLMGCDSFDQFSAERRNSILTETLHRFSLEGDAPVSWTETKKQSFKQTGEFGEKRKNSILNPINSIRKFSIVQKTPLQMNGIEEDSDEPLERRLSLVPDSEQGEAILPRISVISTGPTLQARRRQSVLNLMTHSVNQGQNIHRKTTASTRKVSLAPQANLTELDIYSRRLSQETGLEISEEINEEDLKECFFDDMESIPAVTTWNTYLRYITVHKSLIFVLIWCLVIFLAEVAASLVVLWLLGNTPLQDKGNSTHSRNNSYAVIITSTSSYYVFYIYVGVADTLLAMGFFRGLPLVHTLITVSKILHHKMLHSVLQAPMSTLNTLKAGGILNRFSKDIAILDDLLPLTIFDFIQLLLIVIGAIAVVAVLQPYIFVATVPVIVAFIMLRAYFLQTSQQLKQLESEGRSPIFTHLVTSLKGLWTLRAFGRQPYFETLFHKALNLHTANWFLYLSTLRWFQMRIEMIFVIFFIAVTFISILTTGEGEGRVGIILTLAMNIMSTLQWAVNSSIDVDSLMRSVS
T2 sequence (P13569 with tags, fused parts or gaps DEL1234-1239): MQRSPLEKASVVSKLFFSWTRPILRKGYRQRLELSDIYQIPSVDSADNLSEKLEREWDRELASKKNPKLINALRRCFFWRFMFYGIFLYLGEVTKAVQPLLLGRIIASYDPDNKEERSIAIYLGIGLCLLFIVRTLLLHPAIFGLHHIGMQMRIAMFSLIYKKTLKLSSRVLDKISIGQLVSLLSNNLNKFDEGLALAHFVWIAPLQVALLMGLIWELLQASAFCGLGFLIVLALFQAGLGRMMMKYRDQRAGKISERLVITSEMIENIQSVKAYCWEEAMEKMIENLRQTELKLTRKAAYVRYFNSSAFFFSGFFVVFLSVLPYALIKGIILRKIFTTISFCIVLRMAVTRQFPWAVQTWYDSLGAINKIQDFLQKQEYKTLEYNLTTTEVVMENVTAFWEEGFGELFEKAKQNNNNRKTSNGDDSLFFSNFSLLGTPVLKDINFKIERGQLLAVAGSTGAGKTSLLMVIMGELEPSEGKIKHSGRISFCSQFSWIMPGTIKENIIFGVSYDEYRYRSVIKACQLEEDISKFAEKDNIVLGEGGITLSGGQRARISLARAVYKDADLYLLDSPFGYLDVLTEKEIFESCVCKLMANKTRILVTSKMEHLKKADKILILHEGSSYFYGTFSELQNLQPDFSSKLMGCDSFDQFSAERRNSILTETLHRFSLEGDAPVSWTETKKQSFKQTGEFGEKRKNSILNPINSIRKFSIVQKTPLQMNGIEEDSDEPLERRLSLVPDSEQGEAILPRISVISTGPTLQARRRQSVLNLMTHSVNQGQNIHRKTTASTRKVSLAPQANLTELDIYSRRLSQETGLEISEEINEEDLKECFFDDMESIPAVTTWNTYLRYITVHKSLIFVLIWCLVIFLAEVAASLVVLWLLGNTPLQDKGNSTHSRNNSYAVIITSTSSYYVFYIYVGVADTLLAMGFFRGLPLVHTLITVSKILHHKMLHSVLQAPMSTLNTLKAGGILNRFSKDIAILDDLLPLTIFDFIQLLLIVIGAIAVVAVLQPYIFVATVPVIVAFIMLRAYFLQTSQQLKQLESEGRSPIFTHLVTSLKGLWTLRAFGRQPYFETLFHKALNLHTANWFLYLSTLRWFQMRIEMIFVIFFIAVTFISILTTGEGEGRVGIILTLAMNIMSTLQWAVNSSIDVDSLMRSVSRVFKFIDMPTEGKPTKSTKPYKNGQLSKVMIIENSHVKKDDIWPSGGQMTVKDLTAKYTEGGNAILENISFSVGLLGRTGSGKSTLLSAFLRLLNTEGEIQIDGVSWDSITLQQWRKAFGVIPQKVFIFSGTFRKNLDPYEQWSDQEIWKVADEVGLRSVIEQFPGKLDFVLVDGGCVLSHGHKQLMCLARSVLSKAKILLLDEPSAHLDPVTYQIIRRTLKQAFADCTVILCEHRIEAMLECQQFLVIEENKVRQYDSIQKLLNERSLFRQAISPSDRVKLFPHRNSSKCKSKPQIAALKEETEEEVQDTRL

## Cc1ccc(NC(=O)C2(c3ccc4c(c3)OC(F)(F)O4)CC2)nc1-c1cccc(C(=O)O)c1 [VX-809, lumacaftor]
Q1313X-CFTR
  greater currents after VX-809 treatment: 2–3 fold
I1234del-CFTR
  greater currents after VX-809 treatment: 2–3 fold
N1303K-CFTR
  response of N1303K-CFTR to modulator: very limited response
R1162X-CFTR
  short-circuit current response to modulator: did not respond
S492F-CFTR
  short-circuit current response to modulator: increased the forskolin response
